For experiment [1], the target named is hVR1 (Homo sapiens, UniProt Q8NER1). The experiment can be described thus: Calcium imaging assay (Fura2) of VR1 antagonists, proton stimulation. The settings on record: HEK 293 cells expressing hVR1; for % Inhibition @ 1 μM: calcium ion influx induced by proton stimulation (pH 5.7); for IC50: calcium ion influx induced by proton stimulation. It is filed as cell-based. The text has this: VR1 protein is a heat-gated cation channel that exchanges about 10 calcium ions for every sodium ion resulting in neuronal membrane depolarization and elevated intracellular calcium ion levels. Therefore the functional activity of compounds at the VR1 receptor may be determined by measuring changes in intracellular calcium levels in 293 cells expressing capsaicin-insensitive VR1 receptor variants. A dual wavelength ratiometric dye, Fura2, was used as an indicator of relative levels of calcium ions in a 96 well format using a bench top scanning fluorometer with integrated fluidics and temperature control (Flex Station, Molecular Devices).
A dual wavelength ratiometric dye, Fura2, was used as an indicator of relative levels of [Ca2+] in a 96 well format using a bench top scanning fluorometer with integrated fluidics and temperature control (Flex Station, Molecular Devices).
HEK 293 cells expressing hVR1 were grown on PDL coated 96-well black-walled plates, in the presence of a DMEM medium containing 5% Penstrep, 5% Glutamax, 200 ug/mL Hygromycin, 5 μg/mL Blasticide and 10% heat inactivated FBS. Prior to assay, the cells were loaded with 5 μg/mL Fura2 in normal saline solution at 37° C. for 40 minutes. Cells were then washed with normal saline to remove the dye.
The assay consists of two stages; a pre-treatment phase followed by a treatment phase. In the pretreatment phase, 50 μl of a compound solution was added to the cells. Immediately following, 50 μl of the test compound in the presence of agonist (a saline solution plus 10 mM citric acid bufferd to pH 5.7 with HCl) was added. Fura2 was excited at […] to indicate relative calcium concentration. Changes in wavelength measurements were made throughout the course of the experiment in 4 second intervals over a period of 3 minutes. The fluorescence ratio from the excitations at […] was recorded for analysis. Responses were measured as peak fluorescence ratio after compound-agonist addition minus baseline fluorescence ratio prior to treatment and were calculated for each concentration tested using the SoftMaxPro software. Data was expressed as percentage inhibition calculated as follows: […]
A dose response curve was then determined, from which the ID50 of each compound was calculated.

Experiment [2] concerns the target T1, HsVR1 (Homo sapiens, UniProt Q8NER1).
T1 construct: expressed in transfected cells; host or cells: Xenopus oocytes injected with HsVR1 RNA
The experiment can be described thus: Two-electrode voltage clamp recording of capsaicin induced VR1 current in Xenopus oocytes. The settings on record: 250 nM capsaicin induced current; Xenopus oocytes injected with HsVR1 RNA; read-out: EPHYS IC50. In kind it is cell-based. The protocol:
Xenopus ovaries obtained from NASCO were isolated by enzymatic dissociation using collagenase (Worthington, 2 mg/ml). Oocytes were then individually injected with HsVR1 RNA (0.5 μg/μl). Injected oocytes are stored in standard oocyte incubation solution, ND96, containing 96 mM NaCl, 2 mM KCl, 1 mM MgCl2, 0.3 mM CaCl2 and 50 µg/ml Gentamicin at 16° C. Capsaicin induced VR1 current is observed in oocytes 4-5 days after injection. Eight oocytes are placed in the recording chambers. Each oocyte is impaled by 2 glass electrodes having resistances of 0.5 to 1 MOhm when filled with a 3 M KCl solution. Electrode advancement and oocyte impalement are under software control (OpusXpress 1.1, Axon Instruments). VR1 expression in the oocytes is verified using 250 nM capsaicin. Test solution delivery to the oocytes during the experiment is also under software control. The solutions are prepared in 96 well plates and robotically pipetted into the oocyte recording chambers by an 8 channel pipetter. Oocytes are exposed to several 250 μl applications of 250 nM capsaicin until a stable current amplitude is obtained with each application. A set of 96 well plates containing the test solutions is prepared so that the sequence of solution application to the oocyte is as follows: 250 μls of 250 nM capsaicin is followed by a several minute wash with standard oocyte saline. 1 ml of the test compound is then added at a particular test concentration, followed immediately by 250 μl of the compound at the same concentration plus 250 nM capsaicin. The capsaicin induced VR1 current is recorded in the presence and absence of test compound for each concentration. The standard test concentrations range from 0.3 to 2000 nM. Quantitative measurement of VR1 current block was carried out by calculating the area under the curve described by the inward current. The resulting numbers for capsaicin induced currents in the presence of increasing compound concentration are normalized to the maximum current obtained. These points are then plotted on a logarithmic scale and fitted by a Hill function. The IC50 values for each compound tested were then calculated from the resulting Hill fit. All compounds that inhibited capsaicin induced current greater than 50% were considered positives.

Molecules are shown by their SMILES. Where only a bound is given, the exact number is not on record here.

Usually IC50 stands for the concentration that inhibits the measured activity by half.

T1 sequence (Q8NER1 whole entry): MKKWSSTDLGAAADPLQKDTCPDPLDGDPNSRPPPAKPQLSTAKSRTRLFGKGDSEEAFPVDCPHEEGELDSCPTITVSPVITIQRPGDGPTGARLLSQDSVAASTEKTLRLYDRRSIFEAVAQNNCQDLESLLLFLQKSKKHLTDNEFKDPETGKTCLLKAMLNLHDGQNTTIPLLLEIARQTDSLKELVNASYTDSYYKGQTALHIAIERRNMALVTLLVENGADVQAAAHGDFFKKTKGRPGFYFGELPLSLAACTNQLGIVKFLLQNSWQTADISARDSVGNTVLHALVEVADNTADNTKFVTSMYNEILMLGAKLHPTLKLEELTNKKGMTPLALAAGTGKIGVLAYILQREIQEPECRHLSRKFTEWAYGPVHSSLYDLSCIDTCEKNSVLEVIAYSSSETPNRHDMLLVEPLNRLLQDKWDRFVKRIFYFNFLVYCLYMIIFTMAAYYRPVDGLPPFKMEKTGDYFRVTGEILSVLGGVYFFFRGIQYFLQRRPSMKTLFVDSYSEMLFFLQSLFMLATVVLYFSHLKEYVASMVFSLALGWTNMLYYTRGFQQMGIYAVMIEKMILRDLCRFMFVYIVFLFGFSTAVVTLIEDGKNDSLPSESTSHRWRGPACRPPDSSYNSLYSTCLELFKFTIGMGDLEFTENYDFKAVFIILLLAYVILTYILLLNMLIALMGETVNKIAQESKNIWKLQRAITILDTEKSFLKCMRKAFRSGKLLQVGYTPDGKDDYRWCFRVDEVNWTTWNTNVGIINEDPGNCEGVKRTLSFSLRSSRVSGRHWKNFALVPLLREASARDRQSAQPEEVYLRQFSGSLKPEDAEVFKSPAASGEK
hVR1, sequence (Q8NER1 whole entry): as above

For the compound `CSc1nc2c(c(Nc3ccc(C(C)(C)C)cc3)n1)CCN(c1ncccc1Cl)C2` [Example 28, N-(4-tert-Butylphenyl)-7-(3-chloropyridin-2-yl)-5,6,7,8-tetrahydro-2-(methylthio)pyrido[3,4-d]pyrimidin-4-amine], in experiment [1], the “% Inhibition @ 1 μM” value was “++++ (compound exhibited 76% or greater inhibition of calcium ion influx induced by proton stimulation)” and the IC50 is < 100 nM. In addition, the IC50 in experiment [2] was < 100 nM.

Take `FC(F)(F)c1ccc(Nc2ncnc3c2CCN(c2ncccc2Cl)C3)cn1` [Example 20]: in experiment [1], the “% Inhibition @ 1 μM” value was “++++ (compound exhibited 76% or greater inhibition of calcium ion influx induced by proton stimulation)” and the IC50 lay in the range of 101 to 500 nM. Also, in experiment [2], the IC50 fell in the range of 101 to 500 nM.

As for `CCOc1nc2c(c(Nc3ccc(C(F)(F)F)cc3)n1)CCN(c1ncccc1S(C)(=O)=O)C2` [Example 64, 2-Ethoxy-N-(4-(trifluoromethyl)phenyl)-5,6,7,8-tetrahydro-7-(3-(methylsulfonyl)pyridin-2-yl)pyrido[3,4-d]pyrimidin-4-amine], in experiment [1], the “% Inhibition @ 1 μM” value is given as “+++ (compound exhibited 51-75% inhibition of calcium ion influx induced by proton stimulation)” and the IC50 was in the range of 501 to 1000 nM. The IC50 in experiment [2] was in the range of 101 to 500 nM.

For `CC(C)(C)c1ccc(Nc2ncnc3c2CCN(c2ncccc2S(C)(=O)=O)C3)cc1` [Example 8, (4-tert-Butyl-phenyl)-[7-(3-methanesulfonyl-pyridin-2-yl)-5,6,7,8-tetrahydro-pyrido[3,4-d]pyrimidin-4-yl]-amine], in experiment [1], the “% Inhibition @ 1 μM” value is “++++ (compound exhibited 76% or greater inhibition of calcium ion influx induced by proton stimulation)”. In addition, the IC50 in experiment [1] and in experiment [2] was 101 to 500 nM each time.

In the case of `CCS(=O)(=O)c1cccnc1N1CCc2c(ncnc2Nc2ccc(C(F)(F)F)cc2)C1` [Example 10, 7-(3-(Ethylsulfonyl)pyridin-2-yl)-N-(4-(trifluoromethyl)phenyl)-5,6,7,8-tetrahydropyrido[3,4-d]pyrimidin-4-amine], in experiment [1], the “% Inhibition @ 1 μM” value is “+++ (compound exhibited 51-75% inhibition of calcium ion influx induced by proton stimulation)” and the IC50 lay within 101 to 500 nM. For the same compound, the IC50 in experiment [2] is 101 to 500 nM.

With `Clc1cccnc1N1CCc2c(ncnc2NCCc2ccccc2)C1` [Example 39, 7-(3-Chloropyridin-2-yl)-5,6,7,8-tetrahydro-N-phenethylpyrido[3,4-d]pyrimidin-4-amine], in experiment [1], the “% Inhibition @ 1 μM” value is “++++ (compound exhibited 76% or greater inhibition of calcium ion influx induced by proton stimulation)” and the IC50 was 101 to 500 nM. Also, the IC50 in experiment [2] was > 1000 nM.

Regarding `FC(F)(F)c1ccc(Nc2nc(NCCN3CCOCC3)nc3c2CCN(c2ncccc2Cl)C3)cc1` [Example 33, 7-(3-Chloropyridin-2-yl)-N^4-(4-(trifluoromethyl)phenyl)-5,6,7,8-tetrahydro-N^2-(2-morpholinoethyl)pyrido[3,4-d]pyrimidine-2,4-diamine], the “% Inhibition @ 1 μM” value in experiment [1] is on record as “+ (compound exhibited 0-25% inhibition of calcium ion influx induced by proton stimulation)”. In addition, the IC50 in experiment [2] was in the range of 501 to 1000 nM.

On to `CCOc1nc2c(c(Nc3ccc(C(F)(F)F)cc3)n1)CCN(c1ncccc1Cl)C2` [Example 48, 7-(3-Chloropyridin-2-yl)-2-ethoxy-N-(4-(trifluoromethyl)phenyl)-5,6,7,8-tetrahydropyrido[3,4-d]pyrimidin-4-amine], for which, in experiment [1], the “% Inhibition @ 1 μM” value was “++++ (compound exhibited 76% or greater inhibition of calcium ion influx induced by proton stimulation)” and the IC50 fell in the range of 101 to 500 nM. The IC50 in experiment [2] is < 100 nM.

As to `COc1nc2c(c(Nc3ccc(C(C)(C)C)cc3)n1)CCN(c1ncccc1Cl)C2` [Example 29, N-(4-tert-Butylphenyl)-7-(3-chloropyridin-2-yl)-5,6,7,8-tetrahydro-2-methoxypyrido[3,4-d]pyrimidin-4-amine], in experiment [1], the “% Inhibition @ 1 μM” value is listed as “++++ (compound exhibited 76% or greater inhibition of calcium ion influx induced by proton stimulation)” and the IC50 is < 100 nM. Also, in experiment [2], the IC50 was < 100 nM.

Consider `CC(C)(C)c1ccc(Nc2ncnc3c2CCN(c2ncccc2Cl)C3)cc1.Cl` [Example 3, N-(4-tert-Butylphenyl)-7-(3-chloropyridin-2-yl)-5,6,7,8-tetrahydropyrido[3,4-d]pyrimidin-4-amine hydrochloride], for which, in experiment [1], the “% Inhibition @ 1 μM” value was “++++ (compound exhibited 76% or greater inhibition of calcium ion influx induced by proton stimulation)” and the IC50 is < 100 nM. Moreover, the IC50 in experiment [2] was < 100 nM.

With `COCc1nc2c(c(Nc3ccc(C(C)(C)C)cc3)n1)CCN(c1ncccc1Cl)C2.Cl` [Example 5, N-(4-tert-Butylphenyl)-7-(3-chloropyridin-2-yl)-5,6,7,8-tetrahydro-2-(methoxymethyl)pyrido[3,4-d]pyrimidin-4-amine hydrochloride], in experiment [1], the “% Inhibition @ 1 μM” value is listed as “++++ (compound exhibited 76% or greater inhibition of calcium ion influx induced by proton stimulation)”. Moreover, the IC50 in experiment [1] and in experiment [2] was < 100 nM in each case.

Turning to `FC(F)(F)c1ccc(Nc2nccc3c2CCN(c2ncccc2Cl)C3)cc1` [Example 26, 6-(3-Chloropyridin-2-yl)-N-(4-(trifluoromethyl)phenyl)-5,6,7,8-tetrahydro-2,6-naphthyridin-1-amine], in experiment [1], the “% Inhibition @ 1 μM” value was “+ (compound exhibited 0-25% inhibition of calcium ion influx induced by proton stimulation)”. The IC50 in experiment [2] was > 1000 nM.

`CC1(C)CCNc2cc(Nc3ncnc4c3CCN(c3ncccc3Cl)C4)ccc21` [Example 59, 7-(3-chloropyridin-2-yl)-5,6,7,8-tetrahydro-N-(1,2,3,4-tetrahydro-4,4-dimethylquinolin-7-yl)pyrido[3,4-d]pyrimidin-4-amine]: the IC50 in experiment [1] was in the range of 101 to 500 nM.

For the compound `CC(C)(C#N)c1ccc(Nc2ncnc3c2CCN(c2ncccc2Cl)C3)cc1` [Example 56, 2-(4-(7-(3-Chloropyridin-2-yl)-5,6,7,8-tetrahydropyrido[3,4-d]pyrimidin-4-ylamino)phenyl)-2-methylpropanenitrile], in experiment [1], the “% Inhibition @ 1 μM” value is reported as “++++ (compound exhibited 76% or greater inhibition of calcium ion influx induced by proton stimulation)” and the IC50 is < 100 nM.

As to `Clc1cccnc1N1CCc2c(ncnc2NCCCc2ccccc2)C1` [Example 51, 7-(3-Chloropyridin-2-yl)-5,6,7,8-tetrahydro-N-(3-phenylpropyl)pyrido[3,4-d]pyrimidin-4-amine], the “% Inhibition @ 1 μM” value in experiment [1] is “+ (compound exhibited 0-25% inhibition of calcium ion influx induced by proton stimulation)”.

With `COc1cccc(Nc2ncnc3c2CCN(c2ccc(C(F)(F)F)cn2)C3)c1` [Example 73, 7-(5-(Trifluoromethyl)pyridin-2-yl)-5,6,7,8-tetrahydro-N-(3-methoxyphenyl)pyrido[3,4-d]pyrimidin-4-amine], in experiment [1], the “% Inhibition @ 1 μM” value is “+ (compound exhibited 0-25% inhibition of calcium ion influx induced by proton stimulation)” and the IC50 is > 1000 nM.

`COc1nc2c(c(Nc3ccc(C(F)(F)F)cc3)n1)CCN(c1ncccc1Cl)C2` [Example 27, 7-(3-Chloropyridin-2-yl)-N-(4-(trifluoromethyl)phenyl)-5,6,7,8-tetrahydro-2-methoxypyrido[3,4-d]pyrimidin-4-amine]: the concentration for half-maximal inhibition (IC50) in experiment [1] was in the range of 101 to 500 nM.

Source of the values: patent publication US7312330B2, “Bicycloheteroarylamine compounds as ion channel ligands and uses thereof” (Renovis, Inc., priority 2003, dated 2007).
